The target of series [1] is T1, Amine oxidase [flavin-containing] B (Homo sapiens, UniProt P27338).
T1 sequence (P27338 whole entry): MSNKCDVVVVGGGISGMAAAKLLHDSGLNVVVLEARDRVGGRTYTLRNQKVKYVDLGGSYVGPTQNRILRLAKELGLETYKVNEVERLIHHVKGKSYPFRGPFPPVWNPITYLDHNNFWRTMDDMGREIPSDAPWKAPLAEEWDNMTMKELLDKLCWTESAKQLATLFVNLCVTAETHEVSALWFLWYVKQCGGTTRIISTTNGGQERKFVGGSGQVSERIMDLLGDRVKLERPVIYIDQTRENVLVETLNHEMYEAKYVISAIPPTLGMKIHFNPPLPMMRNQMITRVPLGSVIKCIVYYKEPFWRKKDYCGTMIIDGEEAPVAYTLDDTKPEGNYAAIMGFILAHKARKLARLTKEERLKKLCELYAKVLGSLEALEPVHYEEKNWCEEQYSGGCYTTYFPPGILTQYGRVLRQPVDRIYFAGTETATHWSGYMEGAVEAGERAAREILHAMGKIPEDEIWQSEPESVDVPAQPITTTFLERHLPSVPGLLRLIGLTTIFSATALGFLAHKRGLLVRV
Particulars: 0.5 h.

Series [2] concerns the target T1, Amine oxidase [flavin-containing] B. Put plainly: Inhibition of MAOB (unknown origin) assessed as residual activity at 10 uM using benzylamine as substrate preincubated for 30 mins followed by substrate addition relative to control. The note with it: read-out: Activity.
The target in series [3] is T2, Amine oxidase [flavin-containing] A (Homo sapiens, UniProt P21397).
T2 sequence (P21397 whole entry): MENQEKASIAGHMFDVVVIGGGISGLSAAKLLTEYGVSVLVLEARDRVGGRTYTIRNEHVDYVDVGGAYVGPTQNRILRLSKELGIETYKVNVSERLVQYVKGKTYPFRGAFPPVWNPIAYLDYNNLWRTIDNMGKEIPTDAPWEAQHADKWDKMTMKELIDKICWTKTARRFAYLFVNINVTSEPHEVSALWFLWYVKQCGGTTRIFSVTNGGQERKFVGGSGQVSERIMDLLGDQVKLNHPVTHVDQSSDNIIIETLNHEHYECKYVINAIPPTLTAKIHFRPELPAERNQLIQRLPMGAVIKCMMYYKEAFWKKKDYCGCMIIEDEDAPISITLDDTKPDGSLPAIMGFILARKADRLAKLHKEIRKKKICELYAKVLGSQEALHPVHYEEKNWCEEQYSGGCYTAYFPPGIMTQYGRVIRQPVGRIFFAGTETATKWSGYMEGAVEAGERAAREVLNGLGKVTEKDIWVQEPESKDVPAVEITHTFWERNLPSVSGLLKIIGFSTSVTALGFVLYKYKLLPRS

The target of series [4] is T1, Amine oxidase [flavin-containing] B.
A short description of series [5]: Permeability of the compound in PBS/EtOH at 100 ug/ml incubated for 16 hrs by PAMPA. Format: ADME. Particulars: read-out: permeability.
Another series is filed under the species Homo sapiens. Kind of series: Selectivity index, ratio of IC50 for MAOA (unknown origin) to IC50 for MAOB (unknown origin).
The next series addresses Acetylcholinesterase (Electrophorus electricus, UniProt O42275).
Series [6] has as its target T2, Amine oxidase [flavin-containing] A. Kind of series: Inhibition of MAOA (unknown origin) assessed as residual activity at 10 uM using kynuramine as substrate preincubated for 30 mins followed by substrate addition relative to control. Particulars: read-out: Activity.
Series [7] has the same target. Put plainly: Reversible inhibition of MAOA (unknown origin) assessed as residual enzyme activity at 2 uM using kynuramine as substrate measured after 30 mins relative to control. The note with it: 0.5 h, read-out: Activity.
Series [8] shares this target. Kind of series: Reversible inhibition of MAOA (unknown origin) assessed as residual enzyme activity at 2 uM using kynuramine as substrate pre-incubated for 30 mins followed by dialysis with pH 7.2 sodium phosphate buffer relative to control. Particulars: read-out: Activity.
Series [9] shares this target. Kind of series: Irreversible inhibition of MAOA (unknown origin) assessed as residual enzyme activity at 0.014 uM using kynuramine as substrate pre-incubated for 30 mins followed by dialysis with pH 7.2 sodium phosphate buffer relative to control. The note with it: read-out: Activity.
The target is the same in series [10]. Kind of series: Irreversible inhibition of MAOA (unknown origin) assessed as residual enzyme activity at 0.014 uM using kynuramine as substrate measured after 30 mins relative to control. The note with it: 0.5 h, read-out: Activity.
For series [11] the target is unchanged. Put plainly: Reversible inhibition of MAOA (unknown origin) assessed as residual enzyme activity at 3.6 uM using kynuramine as substrate pre-incubated for 30 mins followed by dialysis with pH 7.2 sodium phosphate buffer relative to control. The note with it: read-out: Activity.
The target is the same in series [12]. Put plainly: Competitive inhibition of MAOA (unknown origin) using varying levels of kynuramine as substrate preincubated for 15 mins followed by substrate addition and measured by Lineweaver-burk plot analysis.
The target is the same in series [13]. Put plainly: Reversible inhibition of MAOA (unknown origin) assessed as residual enzyme activity at 3.6 uM using kynuramine as substrate measured after 30 mins relative to control. Particulars: 0.5 h, read-out: Activity.
Series [14] deals with T1, Amine oxidase [flavin-containing] B. Kind of series: Reversible inhibition of MAOB (unknown origin) assessed as residual enzyme activity at 0.54 uM using benzylamine as substrate pre-incubated for 30 mins followed by dialysis with pH 7.2 sodium phosphate buffer relative to control. Particulars: read-out: Activity.
Series [15] has the same target. Put plainly: Competitive inhibition of MAOB (unknown origin) using varying levels of benzylamine as substrate preincubated for 15 mins followed by substrate addition and measured by Lineweaver-burk plot analysis.
For series [16] the target is unchanged. Kind of series: Reversible inhibition of MAOB (unknown origin) assessed as residual enzyme activity at 0.54 uM using benzylamine as substrate measured after 30 mins relative to control. The note with it: 0.5 h, read-out: Activity.
Series [17] has the same target. Kind of series: Reversible inhibition of MAOB (unknown origin) assessed as residual enzyme activity at 0.08 uM using benzylamine as substrate measured after 30 mins relative to control. Particulars: 0.5 h, read-out: Activity.
For series [18] the target is unchanged. Kind of series: Reversible inhibition of MAOB (unknown origin) assessed as residual enzyme activity at 0.08 uM using benzylamine as substrate pre-incubated for 30 mins followed by dialysis with pH 7.2 sodium phosphate buffer relative to control. The note with it: read-out: Activity.

Acetylcholinesterase, sequence (O42275 whole entry): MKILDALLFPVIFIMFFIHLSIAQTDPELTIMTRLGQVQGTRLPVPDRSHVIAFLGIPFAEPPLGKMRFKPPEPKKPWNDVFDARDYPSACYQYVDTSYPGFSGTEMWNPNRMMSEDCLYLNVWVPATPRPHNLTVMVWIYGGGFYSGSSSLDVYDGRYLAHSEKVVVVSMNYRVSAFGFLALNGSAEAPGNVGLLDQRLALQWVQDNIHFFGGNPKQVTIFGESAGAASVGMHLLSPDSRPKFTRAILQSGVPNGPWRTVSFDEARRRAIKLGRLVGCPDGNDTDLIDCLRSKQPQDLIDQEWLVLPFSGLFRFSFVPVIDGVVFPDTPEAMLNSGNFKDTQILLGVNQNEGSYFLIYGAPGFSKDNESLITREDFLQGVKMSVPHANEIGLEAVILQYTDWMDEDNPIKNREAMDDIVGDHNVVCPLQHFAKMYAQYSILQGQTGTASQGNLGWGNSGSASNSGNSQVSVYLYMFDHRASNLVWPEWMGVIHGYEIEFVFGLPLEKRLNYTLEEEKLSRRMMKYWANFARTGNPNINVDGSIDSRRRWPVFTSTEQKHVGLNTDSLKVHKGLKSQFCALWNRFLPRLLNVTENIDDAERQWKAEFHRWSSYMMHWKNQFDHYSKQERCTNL

Compound `C#CCN(C)Cc1ccccc1` [PARGYLINE] displayed an activity at 0.2 µM in [1] of 27.9%.
As to `NC(=S)N/N=C/c1ccccc1F`, the activity at 10 µM in [2] came out at 33.5%; in series [6] it was 77.5%. The concentration for half-maximal inhibition (IC50) in series [3] was more than 10 µM; in [4], 7.61 µM; on Acetylcholinesterase, 30.8 µM. For the same compound, in series [5], the Papp at 16 h, 100 ug/ml was 10.3 ×10⁻⁶ cm/s. The Ratio IC50 in the series listed under Homo sapiens was more than 1.31.
Regarding `Cc1cccc(N2CC(CO)OC2=O)c1` (stereo not given) [TOLOXATONE], the activity at 2 µM is 30.7% in series [7] and 74% in [8].
With `C#CCN(C)CCCOc1ccc(Cl)cc1Cl` [CLORGILINE], the activity at 0.014 µM was 19.8% in [9] and 21.4% in [10].
For `NC(=S)N/N=C/c1ccc(Cl)cc1`, the activity at 10 µM in [2] was determined as 60.5%; in series [6], 76%. Besides, the IC50 in series [3] is more than 10 µM; in series [4], more than 10 µM; against Acetylcholinesterase, more than 40 µM.
On to `NC(=S)N/N=C/c1ccccc1` [PHENYLTHIOSEMICARBAZONE], for which the values for the activity at 10 µM in series [2] and in series [6] were 75.5% and 83.5%, respectively. The figures for the IC50 (in [3]; in series [4]; against Acetylcholinesterase) were more than 10 µM, more than 10 µM and more than 40 µM, respectively.
In the case of `NC(=S)N/N=C/c1ccc(Br)cc1`, the figures for the activity at 10 µM in series [2] and in [6] were 82.5% and 59.5%, respectively. Further, the concentration for half-maximal inhibition (IC50) in series [3] is more than 10 µM; in [4], more than 10 µM; at Acetylcholinesterase, 31.1 µM.
Turning to `CCc1ccc(/C=N/NC(N)=S)cc1`, the figures for the activity at 10 µM in series [2] and in series [6] were 86.2% and 36%, respectively. Also, the 50% inhibitory concentration (IC50) in [3] is 5.98 µM; in series [4] it was more than 10 µM; on Acetylcholinesterase, 26.7 µM. Besides, in [5], the Papp at 16 h, 100 ug/ml worked out at 9.44 ×10⁻⁶ cm/s. For the same compound, the Ratio IC50 in the series listed under Homo sapiens was less than 0.6.
Regarding `CN(C)c1ccc(/C=N/NC(N)=S)cc1`, the activity at 10 µM in series [2] was 82.3%; in [6], 16.5%. Also, the figures for the activity at 3.6 µM in series [11] and in [13] were 70.3% and 34.7%, respectively. Also, the results for the half-maximal inhibitory concentration (IC50) (in [3]; in series [4]; against Acetylcholinesterase) were 1.82 µM, more than 10 µM and 35.3 µM, respectively. The inhibitory constant (Ki) in series [12] was determined as 0.97 µM. Further, the Papp at 16 h, 100 ug/ml in series [5] is 10.1 ×10⁻⁶ cm/s.
As to `NC(=S)N/N=C/c1ccc(F)cc1`, the results for the activity at 10 µM in series [2] and in series [6] were 86.5% and 84.5%, respectively. For the same compound, the IC50 in series [3] was more than 10 µM; in [4] it was more than 10 µM; against Acetylcholinesterase, 37.9 µM.
`N=C(S)N/N=C/c1ccc(C(F)(F)F)cc1`: the activity at 10 µM in series [2] worked out at 77.5%; in series [6], 92.5%. The IC50 was more than 10 µM in series [3], more than 10 µM in series [4] and 36.2 µM at Acetylcholinesterase.
On to `NC(=S)N/N=C/c1cccc(F)c1`, for which the activity at 10 µM in series [2] came to 3%; in [6], 75.5%. Moreover, the activity at 0.54 µM in series [14] came out at 81%; in series [16] it was 27.4%. Besides, the Ki in series [15] is 0.12 µM. Besides, the results for the IC50 (in series [3]; in series [4]; against Acetylcholinesterase) were more than 10 µM, 0.27 µM and 26.6 µM, respectively. Moreover, the Papp at 16 h, 100 ug/ml in [5] worked out at 13.1 ×10⁻⁶ cm/s. Also, the Ratio IC50 in the series filed under Homo sapiens is more than 37.
In the case of `Cc1ccc(/C=N/NC(N)=S)cc1`, the activity at 10 µM in series [2] amounted to 91.5%; in series [6], 56.5%. Besides, the concentration for half-maximal inhibition (IC50) in series [3] is more than 10 µM; in series [4], more than 10 µM; on Acetylcholinesterase it was more than 40 µM.
With `COc1ccc(/C=N/NC(N)=S)cc1`, the activity at 10 µM came out at 82.1% in series [2] and 37.5% in series [6]. The IC50 was 4.99 µM in series [3], more than 10 µM in series [4] and 36.1 µM against Acetylcholinesterase. Moreover, in series [5], the Papp at 16 h, 100 ug/ml was determined as 11.2 ×10⁻⁶ cm/s. The Ratio IC50 in the series listed under Homo sapiens was less than 0.5.
For `NCCNC(=O)c1ccc(Cl)cn1` [LAZABEMIDE], the activity at 0.08 µM came out at 29.5% in series [17] and 86.9% in series [18]. The IC50 in series [3] was more than 80 µM.
Take `N/C(S)=N/N=C/c1ccc([N+](=O)[O-])cc1`: the activity at 10 µM in series [2] was found to be 7.5%; in series [6] it was 75.5%. The figures for the half-maximal inhibitory concentration (IC50) (in series [3]; in series [4]; against Acetylcholinesterase) were more than 10 µM, 1.43 µM and 15.6 µM, respectively. Moreover, the Papp at 16 h, 100 ug/ml in series [5] was 12.8 ×10⁻⁶ cm/s. In addition, the Ratio IC50 in the series filed under Homo sapiens was more than 6.99.
With `NC(=S)N/N=C/c1ccc(O)cc1`, the activity at 10 µM was found to be 87.5% in [2] and 66% in series [6]. Further, the results for the half-maximal inhibitory concentration (IC50) (in series [3]; in [4]; on Acetylcholinesterase) were more than 10 µM, more than 10 µM and more than 40 µM, respectively.

The values above are taken from ChEMBL document CHEMBL4368868, “Selected aryl thiosemicarbazones as a new class of multi-targeted monoamine oxidase inhibitors” (Medchemcomm, 2018).
